# Measurements reported in patent publication US20140148336A1, “METHODS OF CONTROLLING FUNGAL PATHOGENS USING POLYENE FUNGICIDES” (priority 2012, published 2014).
# What was measured:
# F. virguliforme = assay: Agar diffusion assay, zones of inhibition on F. virguliforme lawn plates (Example 1); assay type: cell-based, Fusarium virguliforme
# Protocol: A PDA plate containing two week old F. virguliforme was flooded with sterile distilled water and scraped with an L-rod to release spores. The spore solution was poured through about four layers of cheese cloth into a 50 mL conical tube. Spores were quantified using a hemacytometer, then diluted to 1×10^5 spores/mL. (1×10^4 spores were spread on plates.) To make F. virguliforme lawn plates, 100 μL of the spore suspension was spread onto commercial PDA plates. Wells were made for the F. virguliforme lawn plates using straw-plungers.
# Natamycin stock was diluted in sterile distilled water to concentrations of 500 ppm, 250 ppm, 100 ppm, 50 ppm, 25 ppm, 12.5 ppm, 6.25 ppm, 3.13 ppm, 1.56 ppm, 0.78 ppm, and 0.4 ppm. 100 μL of each dilution was placed in a well on the lawn plates. Control plates consisted of a 1000 ppm plate, a water control, and a 70% ethanol (EtOH) control.
# […] […] Dilutions lower than 12.5 ppm had no effect.
# SDS = assay: Seed treatment for control of SDS in planta, infested soil (Example 5); assay type: in vivo, Fusarium virguliforme; conditions: for Root Rot Average: 25 g inoculum per liter, rating 1-5 (5 = >90% infection), IC 3.3; for Root Vigor Average Infested Soil: rating 0-4 (4 = healthy taproot), IC 2.5
# Description: (§1) The plants were allowed to grow for 18-21 days. The plants were then gently removed and assessed for root rot symptoms, with a rating of 1=0% infection on taproot and lateral roots, a 2=<25% infection, a 3=25-50% infection, a 4=51-90% infection, and a 5=>90% infection. Root vigor was rated such that a rating of 4=healthy taproot and many lateral roots, a 3=fewer lateral roots and some stunting, a 2=fewer or stringy lateral roots and more stunting, 1=thin tap root and only a few lateral roots, and a 0=thin and stunted taproot with 0-3 lateral roots.
# (§2) Using a protocol similar to Example 2, natamycin treated seeds were tested at 50 μg, 25 μg, 10 μg, 5 μg, and 1 μg natamycin per seed. Briefly, seeds were coated with a natamycin slurry and then allowed to air dry. Ten samples of each were planted into infested soil, while five samples of each were planted in uninfested soil to compare germination and potential phytotoxicity.
# Inoculum rates in this experiment were 25 g inoculum per liter sand/soil. This is equivalent to 8.5×10^4 spores per cone.
# Plants treated with 50 μg/seed of natamycin had the most root rot, while plants treated with 1 μg/seed of natamycin had the least root rot. […] In the tables below, “IC Natamycin 25 ppm” refers to an infested control that was treated with natamcyin as a drench application at 25 ppm two days after planting untreated seed into infested soil.
# SDS spores = assay: Comparison of inoculum rates on treated seeds for control of SDS in planta (Example 6); assay type: in vivo, Fusarium virguliforme; conditions: for Root Vigor Average: rating 0-4 (4 = healthy taproot); for Root Rot Average: rating 1-5 (5 = >90% infection)
# Description: as §1
# Using a protocol similar to that described in Example 5, natamycin at concentrations of 50 μg, 25 μg, 10 μg, 5 μg, and 1 μg was assessed for the treatment of SDS.
# […] Inoculum rates of 25 g/L inoculum and 8 g/L inoculum were compared, corresponding to approximately 10^5 SDS spores per container and 10^4-10^5 SDS spores per container, respectively. Assessment occurred after 18 and 22 days.
# soybean = assay: Seed treatment in uninfested soil, germination and potential phytotoxicity (Example 5); assay type: in vivo; conditions: for Root Vigor Average (Uninfested Soil): rating 0-4 (4 = healthy taproot)
# Description: as §1, §2
# [1] = drench 25 ppm two days after planting untreated seed into infested soil
smiles,measurement,setting,value
"C[C@@H]1C/C=C/C=C/C=C/C=C/[C@H](O[C@@H]2O[C@H](C)[C@@H](O)[C@H](N)[C@@H]2O)C[C@@H]2O[C@](O)(C[C@@H](O)C[C@H]3O[C@@H]3/C=C/C(=O)O1)C[C@H](O)[C@H]2C(=O)O [Natamycin, natamycin]","control of F. virguliforme (zones of inhibition), drop off","F. virguliforme; 12.5 ppm, 100 μL per well, after three days",noticeably
same,control of F. virguliforme (zones of inhibition),"F. virguliforme; 12.5 ppm, after seven days",very limited activity
same,Fusarium growth around plates,"F. virguliforme; 25 ppm and 12.5 ppm plates, one day later (after the three-day reading)",more Fusarium grew
same,control of F. virguliforme (zones of inhibition),"F. virguliforme; 50 ppm, 100 μL per well, after three days",started to drop off slightly
same,control of F. virguliforme (zones of inhibition),"F. virguliforme; 50 ppm, after seven days",started falling off
same,control of F. virguliforme (zones of inhibition),"F. virguliforme; 100 ppm, 100 μL per well, after three days",Substantial control
same,control of F. virguliforme (zones of inhibition),"F. virguliforme; 250 ppm, 100 μL per well, after three days",Substantial control
same,control of F. virguliforme (zones of inhibition),"F. virguliforme; 500 ppm, 100 μL per well, after three days",Substantial control
same,control of F. virguliforme (zones of inhibition),"F. virguliforme; 1000 ppm plate, after three days",almost completely controlled
same,effect on F. virguliforme (zones of inhibition),F. virguliforme; dilutions lower than 12.5 ppm,no effect
same,Root Rot Average,SDS; [1],1.8
same,Root Vigor Average Infested Soil,SDS; [1],2.3
same,Root Rot Average,"SDS; seed treatment 1 μg/seed, infested soil",3
same,Root Vigor Average Infested Soil,SDS; seed treatment 1 μg/seed,1.9
same,Root Rot Average,"SDS; seed treatment 5 μg/seed, infested soil",3.6
same,Root Vigor Average Infested Soil,SDS; seed treatment 5 μg/seed,2.4
same,Root Rot Average,"SDS; seed treatment 10 μg/seed, infested soil",4
same,Root Vigor Average Infested Soil,SDS; seed treatment 10 μg/seed,1.8
same,Root Rot Average,"SDS; seed treatment 25 μg/seed, infested soil",4.7
same,Root Vigor Average Infested Soil,SDS; seed treatment 25 μg/seed,1.1
same,Root Rot Average,"SDS; seed treatment 50 μg/seed, infested soil",4.6
same,Root Vigor Average Infested Soil,SDS; seed treatment 50 μg/seed,1.6
same,decrease of root rot symptoms,"SDS spores; both seed treatment experiments, both SDS inoculum rates",no consistent decrease
same,Root Vigor Average,"SDS spores; drench 25 ppm, Inoc Rate 8, IC 2.3",1.9
same,Root Rot Average,"SDS spores; drench 25 ppm, Inoc Rate 8, IC 2.9",2.6
same,Root Vigor Average,"SDS spores; drench 25 ppm, Inoc Rate 25, IC 1.6",2.3
same,Root Rot Average,"SDS spores; drench 25 ppm, Inoc Rate 25, IC 3.9",4.1
same,Root Vigor Average,"SDS spores; seed treatment 1 μg/seed, Inoc Rate 8, IC 2.3",1.9
same,Root Rot Average,"SDS spores; seed treatment 1 μg/seed, Inoc Rate 8, IC 2.9",2.9
same,Root Vigor Average,"SDS spores; seed treatment 1 μg/seed, Inoc Rate 25, IC 1.6",2.1
same,Root Rot Average,"SDS spores; seed treatment 1 μg/seed, Inoc Rate 25, IC 3.9",4.1
same,Root Vigor Average,"SDS spores; seed treatment 5 μg/seed, Inoc Rate 8, IC 2.3",1.4
same,Root Rot Average,"SDS spores; seed treatment 5 μg/seed, Inoc Rate 8, IC 2.9",2.4
same,Root Vigor Average,"SDS spores; seed treatment 5 μg/seed, Inoc Rate 25, IC 1.6",2.6
same,Root Rot Average,"SDS spores; seed treatment 5 μg/seed, Inoc Rate 25, IC 3.9",4.1
same,Root Vigor Average,"SDS spores; seed treatment 10 μg/seed, Inoc Rate 8, IC 2.3",2.2
same,Root Rot Average,"SDS spores; seed treatment 10 μg/seed, Inoc Rate 8, IC 2.9",2.4
same,Root Vigor Average,"SDS spores; seed treatment 10 μg/seed, Inoc Rate 25, IC 1.6",1.9
same,Root Rot Average,"SDS spores; seed treatment 10 μg/seed, Inoc Rate 25, IC 3.9",4.1
same,Root Vigor Average,"SDS spores; seed treatment 25 μg/seed, Inoc Rate 8, IC 2.3",1.8
same,Root Rot Average,"SDS spores; seed treatment 25 μg/seed, Inoc Rate 8, IC 2.9",2.3
same,Root Vigor Average,"SDS spores; seed treatment 25 μg/seed, Inoc Rate 25, IC 1.6",2.2
same,Root Rot Average,"SDS spores; seed treatment 25 μg/seed, Inoc Rate 25, IC 3.9",3.6
same,Root Vigor Average,"SDS spores; seed treatment 50 μg/seed, Inoc Rate 8, IC 2.3",1.9
same,Root Rot Average,"SDS spores; seed treatment 50 μg/seed, Inoc Rate 8, IC 2.9",2.8
same,Root Vigor Average,"SDS spores; seed treatment 50 μg/seed, Inoc Rate 25, IC 1.6",2.1
same,Root Rot Average,"SDS spores; seed treatment 50 μg/seed, Inoc Rate 25, IC 3.9",3.8
same,germination of plants,"soybean; all plants, seed treatment at all natamycin concentrations (50, 25, 10, 5, 1 μg per seed), un-infested (clean) soil",germinated
same,Root Vigor Average (Uninfested Soil),soybean; seed treatment 1 μg/seed,3.5
same,Root Vigor Average (Uninfested Soil),soybean; seed treatment 5 μg/seed,3.9
same,Root Vigor Average (Uninfested Soil),soybean; seed treatment 10 μg/seed,3.6
same,Root Vigor Average (Uninfested Soil),soybean; seed treatment 25 μg/seed,3.3
same,Root Vigor Average (Uninfested Soil),soybean; seed treatment 50 μg/seed,3.8
same,phytotoxicity to seeds,"soybean; seed treatment at all concentrations (50, 25, 10, 5, 1 μg per seed), un-infested soil",not phytotoxic
